Test: Adverse events (CTCAE 4.0) under apatinib plus gefitinib
Format: in vivo, human
Settings: Apatinib 250 mg Cohort (n = 7), with gefitinib 250 mg; treatment‐related AE, patients (%)

Structure (SMILES): N#CC1(c2ccc(NC(=O)c3cccnc3NCc3ccncc3)cc2)CCCC1 [Apatinib]
- Abdominal distention, ALL: 2 (28.6%)
- Abdominal distention, Grade 1–2: 2 (28.6%)
- Abdominal distention, Grade 3–4: 0
- Blurred vision, ALL: 0
- Blurred vision, Grade 1–2: 0
- Blurred vision, Grade 3–4: 0
- Cough, ALL: 4 (57.1%)
- Cough, Grade 1–2: 4 (57.1%)
- Cough, Grade 3–4: 0
- Diarrhea, ALL: 5 (71.4%)
- Diarrhea, Grade 1–2: 5 (71.4%)
- Diarrhea, Grade 3–4: 0
- Dizziness, ALL: 0
- Dizziness, Grade 1–2: 0
- Dizziness, Grade 3–4: 0
- Dry skin, ALL: 2 (28.6%)
- Dry skin, Grade 1–2: 2 (28.6%)
- Dry skin, Grade 3–4: 0
- Dysgeusia, ALL: 1 (14.3%)
- Dysgeusia, Grade 1–2: 1 (14.3%)
- Dysgeusia, Grade 3–4: 0
- Eczema, ALL: 1 (14.3%)
- Eczema, Grade 1–2: 1 (14.3%)
- Eczema, Grade 3–4: 0
- Elevated ALT, ALL: 3 (42.9%)
- Elevated ALT, Grade 1–2: 2 (28.6%)
- Elevated ALT, Grade 3–4: 1 (14.3%)
- Elevated AST, ALL: 2 (28.6%)
- Elevated AST, Grade 1–2: 1 (14.3%)
- Elevated AST, Grade 3–4: 1 (14.3%)
- Epistaxis, ALL: 3 (42.9%)
- Epistaxis, Grade 1–2: 3 (42.9%)
- Epistaxis, Grade 3–4: 0
- Fatigue, ALL: 2 (28.6%)
- Fatigue, Grade 1–2: 2 (28.6%)
- Fatigue, Grade 3–4: 0
- Gastrointestinal bleeding, ALL: 1 (14.3%)
- Gastrointestinal bleeding, Grade 1–2: 1 (14.3%)
- Gastrointestinal bleeding, Grade 3–4: 0
- HFSR, ALL: 2 (28.6%)
- HFSR, Grade 1–2: 2 (28.6%)
- HFSR, Grade 3–4: 0
- Haematuria, ALL: 1 (14.3%)
- Haematuria, Grade 1–2: 1 (14.3%)
- Haematuria, Grade 3–4: 0
- Headache, ALL: 1 (14.3%)
- Headache, Grade 1–2: 1 (14.3%)
- Headache, Grade 3–4: 0
- Hematochezia, ALL: 1 (14.3%)
- Hematochezia, Grade 1–2: 1 (14.3%)
- Hematochezia, Grade 3–4: 0
- Hypertension, ALL: 5 (71.4%)
- Hypertension, Grade 1–2: 4 (57.1%)
- Hypertension, Grade 3–4: 1 (14.3%)
- Increased bilirubin, ALL: 1 (14.3%)
- Increased bilirubin, Grade 1–2: 1 (14.3%)
- Increased bilirubin, Grade 3–4: 0
- Increased creatinine, ALL: 0
- Increased creatinine, Grade 1–2: 0
- Increased creatinine, Grade 3–4: 0
- Leukopenia, ALL: 0
- Leukopenia, Grade 1–2: 0
- Leukopenia, Grade 3–4: 0
- Nausea, ALL: 0
- Nausea, Grade 1–2: 0
- Nausea, Grade 3–4: 0
- Neutropenia, ALL: 0
- Neutropenia, Grade 1–2: 0
- Neutropenia, Grade 3–4: 0
- Oulorrhagia, ALL: 3 (42.9%)
- Oulorrhagia, Grade 1–2: 3 (42.9%)
- Oulorrhagia, Grade 3–4: 0
- Paronychia, ALL: 1 (14.3%)
- Paronychia, Grade 1–2: 1 (14.3%)
- Paronychia, Grade 3–4: 0
- Periodontitis, ALL: 1 (14.3%)
- Periodontitis, Grade 1–2: 1 (14.3%)
- Periodontitis, Grade 3–4: 0
- Pharyngalgia, ALL: 1 (14.3%)
- Pharyngalgia, Grade 1–2: 1 (14.3%)
- Pharyngalgia, Grade 3–4: 0
- Pneumonia (non‐interstitial), ALL: 1 (14.3%)
- Pneumonia (non‐interstitial), Grade 1–2: 1 (14.3%)
- Pneumonia (non‐interstitial), Grade 3–4: 0
- Proteinuria, ALL: 3 (42.9%)
- Proteinuria, Grade 1–2: 2 (28.6%)
- Proteinuria, Grade 3–4: 1 (14.3%)
- Pruritus, ALL: 0
- Pruritus, Grade 1–2: 0
- Pruritus, Grade 3–4: 0
- Rash, ALL: 5 (71.4%)
- Rash, Grade 1–2: 5 (71.4%)
- Rash, Grade 3–4: 0
- Stomatitis, ALL: 2 (28.6%)
- Stomatitis, Grade 1–2: 2 (28.6%)
- Stomatitis, Grade 3–4: 0
- Thrombocytopenia, ALL: 0
- Thrombocytopenia, Grade 1–2: 0
- Thrombocytopenia, Grade 3–4: 0
- Trachyphonia, ALL: 2 (28.6%)
- Trachyphonia, Grade 1–2: 2 (28.6%)
- Trachyphonia, Grade 3–4: 0
- Vomiting, ALL: 0
- Vomiting, Grade 1–2: 0
- Vomiting, Grade 3–4: 0
